The test system of data set [1] is P. berghei oocyst formation. Nature of the data set: Bioluminescence assay of oocyst formation in vitro (Day0-Day3). The settings on record: mean. The data set is classed as cell-based, Plasmodium berghei. How it is done:
(§1) Purified ookinetes were seeded with Drosophila melanogaster S2 cells (Drosophila Genomics Resource Center, Bloomington, USA) in a 1:10 ratio (10^4 ookinetes and 10^5 S2 cells) in Schneider’s medium (S0146, Sigma-Aldrich) supplemented with 15% FBS, penicillin/streptomycin (50 U/ml, 50 µg/ml) and gentamicin (50 µg/ml) to promote oocyst development. Oocysts were co-cultured with D. melanogaster S2 cells in flat bottom 96-well plates (Corning, New York, USA) for up to 15 days at 19 °C. One-quarter of the medium was changed 3 times per week (every 48 to 72 h), and 10^5 S2 cells were added once per week. In parallel, S2 cells were maintained at 27 °C in Schneider’s medium (S0146, Sigma-Aldrich) supplemented with 10% FBS and penicillin/streptomycin (50 U/ml, 50 µg/ml).
(§2) A bioluminescence assay was used to assess the development of the mosquito stages of PbCSGFP-Luc. In order to evaluate the effect of compounds on the development of the parasite’s mosquito stages, samples were collected at 3 different time points to determine the effect on ookinete and oocyst formation, and oocyst maturation, as previously described. The bioluminescence assay was performed using the Firefly Luciferase Assay Kit (Biotium, Hayward, USA) according to the manufacturer’s instructions, with some modifications. Briefly, the whole well contents were collected and spun down, washed with PBS, frozen in 50 µl of lysis buffer (1:5 ratio) and stored at − 20 °C until further use. Collected samples were lysed and 30 µl of the resulting supernatant were transferred into white 96-well plates. Fifty µl of D-luciferin in Firefly luciferase assay buffer (1:50 ratio) were added to the samples and parasite load was determined by measuring luminescence intensity using a microplate reader (Tecan Infinite M200, Zurich, Switzerland).
(§3) The effect of eprinomectin, abamectin, ivermectin, moxidectin, doramectin and emamectin on the Plasmodium mosquito stages was evaluated as previously described. The compounds were dissolved in dimethyl sulfoxide (DMSO) and the amount of DMSO equivalent to that present in the highest compound concentration was used as a control. The effect of 10 µM of each compound was assessed on ookinetes, and on oocyst development and maturation. Briefly, after 1 h of incubation, the compounds were added to 5 µl of infected blood cultures, and the bioluminescence intensity of the parasites on the ookinete cultures was assessed 24 h later. To assess the effect of the compounds on oocyst development and maturation, compounds were mixed with the mature ookinetes, and parasites collected after 3 days of culture or compounds were added to the oocyst culture after 3 days of culture, and parasites collected 15 days later.
(§4) Compound concentration resulting in 50% inhibition (IC50) for oocyst growth and maturation were estimated for eprinomectin, abamectin, ivermectin, moxidectin, doramectin and emamectin (assayed at 0.05, 0.5, 1, 5, 10, 25 and 50 µM) by nonlinear regression analysis.

Data set [2] deals with P. berghei oocyst growth/maturation. Put plainly: Bioluminescence assay of oocyst growth/maturation in vitro (Day3-Day15). The data set is classed as cell-based, Plasmodium berghei. As to conditions: mean. How it is done: as §1, §2, §3, §4
The subject of data set [3] is P. berghei ookinete formation. Nature of the data set: Bioluminescence assay of ookinete formation in vitro. The data set is classed as cell-based, Plasmodium berghei. As to conditions: 10 µM, 24 h. How it is done: Plasmodium berghei ANKA expressing green fluorescent protein (GFP) and luciferase under the control of the circumsporozoite protein (CSP) promoter (line 784cl1, RMgm-152, PbCSPGFP-Luc) was maintained in Anopheles stephensi mosquitoes and BALB/cByJ mice. To maintain gametocyte infectivity, only up to six passages of parasites from infected to naïve mice were performed. Ookinete in vitro production was performed as previously described. Briefly, BALB/cByJ mice were treated with 0.1 ml phenylhydrazine (25 mg/ml) 3 days prior to infection with 10^7 P. berghei-infected red blood cells (iRBC) obtained from a donor mouse. On the third day after infection, gametocytemia was monitored by light microscopy for the presence of exflagellating gametocytes in ookinete medium (1:4 dilution). […]
A bioluminescence assay was used to assess the development of the mosquito stages of PbCSGFP-Luc. […] Fifty µl of D-luciferin in Firefly luciferase assay buffer (1:50 ratio) were added to the samples and parasite load was determined by measuring luminescence intensity using a microplate reader (Tecan Infinite M200, Zurich, Switzerland).
The effect of eprinomectin, abamectin, ivermectin, moxidectin, doramectin and emamectin on the Plasmodium mosquito stages was evaluated as previously described. […] The effect of 10 µM of each compound was assessed on ookinetes, and on oocyst development and maturation. […]

The subject of data set [4] is Drosophila melanogaster S2 cells. Nature of the data set: AlamarBlue in vitro cytotoxicity assay. The data set is classed as cell-based. As to conditions: 10 µM, up to 7 days. How it is done: Compounds were screened for their in vitro cytotoxicity against D. melanogaster S2 cells, using the AlamarBlue® assay (Invitrogen, Carlsbad, USA). This assay allows to measure metabolic activity based on a fluoremetric/colorimetric indicator [28]. To assess the effect of the compounds on cell development, Drosophila melanogaster S2 cells were seeded in a 1:10 ratio (10^5 S2 cells) in Schneider’s medium (S0146, Sigma-Aldrich) supplemented with 15% FBS, penicillin/streptomycin (50 U/ml, 50 µg/ml) and gentamicin (50 µg/ml). All the above-mentioned compounds were added to the S2 cell cultures to a final concentration of 10 µM and the amount of DMSO equivalent to that present in the highest compound concentration was used as a control. Cultures were maintained for 7 days and one-quarter of the medium was changed 3 times per week every 48 to 72 h. Samples were collected every day by removing 120 µl of medium and adding 80 µl of AlamarBlue previously diluted in Schneider’s medium (1:10 dilution) to each well. The suspension was transferred to a 96 well flat bottom plate and incubated for one and a half hours at 37 °C. Fluorescence intensity was then measured using a microplate reader (Tecan Infinite M200) at 530 nm excitation wavelength/590 nm emission wavelength to determine cell viability.
(The colour change of resazurin is a common sign of viable cells or microbes.)

Data set [5] relates to P. berghei asexual and sexual blood stages. Put plainly: In vivo activity of ivermectin against P. berghei blood stages in infected mice (flow cytometry, microscopy). The settings on record: single oral gavage 5 mg/kg, up to 5 days after infection. On the set-up: species or system Plasmodium berghei (BALB/cByJ mice). From the text:
Male BALB/cByJ mice (6–8 weeks-old) purchased from Charles River Laboratories Inc. (Lyon, France) were used. Two parasite lines were employed in the experimental work, a transgenic parasite line termed PbCSGFP-Luc (RMgm-152),which expresses the fusion gene gfp-luc under the control of the csp promotor (PBANKA_0403200) integrated into the silent 230p gene locus (PBANKA_0306000), and the transgenic parasite line PbFluo-frmg (RMgm-164), which expresses GFP under control of the ‘male gametocyte-specific’ promoter of PB000791.03.0 (dynein heavy chain, putative) and RFP under the control of the ‘female gametocyte-specific’ promoter PB000504.02.0 (LCCL domain-containing protein CCP2). The rfp and gfp genes are integrated into the genome in the 230p locus (PBANKA_0306000).
In order to assess the in vivo activity of Iv, five BALB/cByJ (Charles River) mice per experimental group were infected by intraperitoneal injection of 10^7 P. berghei Fluo-frmg-infected red blood cells. Parasitaemia and gametocyteamia were measured the following days by flow cytometry analysis of 4 µl of tail blood. Blood was collected in 200 µl of PBS and 100 µl stored at 4 °C, while the remaining was transferred to 100 µl of PBS containing […] of red fluorescent nucleic acid stain Syto®61 (Thermo Fisher Scientific, Waltham, USA) and incubated for 20 min at room temperature in the dark. The samples were analysed on a LSRFortessa X-20 flow cytometer (Becton, Dickinson and Co., New Jersey, USA). Female and male gametocytes were gated based on the analysis of GFP and Red Fluorescence Protein (RFP) fluorescence, and parasitemia was estimated based on the analysis of Syto®61 and forward scatter. The positive cell population was determined by comparison of infected blood samples with an uninfected blood sample. Results were then analysed with the FlowJo^TM Software (Version 10, FlowJo^TM Software, Ashland, USA). Exflagellation was also monitored every day, until parasitemia reached 3% by microscopy analysis. To this end, 2.5 µl of tail blood were collected and mounted on a glass slide, and 8 min later the number of exflagellation events present in 4 independent fields of vision at 40× were determined. When parasitemia reached up to 3%, either DMSO or ivermectin were administered by oral gavage, at a concentration of 5 mg/kg, to five mice of each experimental group. Parasitemia, gametocytemia and exflagellation were monitored for 3 days after treatment, following which the mice were euthanized, and the experiment was terminated.
A general note: In flow cytometry, cells or beads pass a laser one at a time.

By IC50 is commonly meant the concentration at which inhibition is half-maximal. High values mean weaker potency in that assay, low ones greater potency in that assay.

In the case of `CO[C@H]1C[C@H](O[C@H]2[C@H](C)O[C@@H](O[C@@H]3/C(C)=C/C[C@@H]4C[C@@H](C[C@]5(C=C[C@H](C)[C@@H](C6CCCCC6)O5)O4)OC(=O)[C@@H]4C=C(C)[C@@H](O)[C@H]5OC/C(=C\C=C\[C@@H]3C)[C@]54O)C[C@@H]2OC)O[C@@H](C)[C@@H]1O` [Doramectin, doramectin], the values for the IC50 in data set [1] and in data set [2] were 7.08 µM and 4.32 µM, respectively.

For `CO/N=C1\C[C@]2(C[C@@H]3C[C@@H](C/C=C(\C)C[C@@H](C)/C=C/C=C4\CO[C@@H]5[C@H](O)C(C)=C[C@@H](C(=O)O3)[C@]45O)O2)O[C@H](/C(C)=C/C(C)C)[C@H]1C` [Moxidectin, moxidectin], the figures for the IC50 in data set [1] (Plasmodium berghei) and in data set [2] (Plasmodium berghei) were 10.8 µM and 5.49 µM, respectively.

Consider abamectin, for which the IC50 in data set [1] is 8.77 µM; in data set [2] it was 7.93 µM.

In the case of emamectin, the “inhibition of ookinete formation (transformation of gametes/zygote into ookinetes)” value in data set [3] was “approximately 47%”. For the same compound, the results for the IC50 in data set [1] and in data set [2] were 7.31 µM and 7.36 µM, respectively. Moreover, the “cytotoxicity against S2 cells (cell viability)” value in data set [4] was “displays some cytotoxicity”.

Consider eprinomectin, for which the half-maximal inhibitory concentration (IC50) worked out at 5.7 µM in data set [1] and 4.59 µM in data set [2].

Consider ivermectin, for which, in data set [5], the “exflagellation events vs untreated controls” value is “no statistically significant differences”, the “female gametocytemia vs untreated controls” value is “no statistically significant differences”, the “male gametocytemia vs untreated controls” value is recorded as “no statistically significant differences” and the “overall parasitemia vs untreated controls” value is recorded as “no statistically significant differences”. Further, in data set [3], the “inhibition of ookinete formation (transformation of gametes/zygote into ookinetes)” value is “very small and non-significant impact”. The compound further gave an IC50 in data set [1] of 11.6 µM. Besides, the IC50 in data set [2] came out at 9.32 µM.

The record behind these values is paper PMC6873674, “Inhibition of Plasmodium sporogonic stages by ivermectin and other avermectins” (Parasites & Vectors, 2019).
